Measured values taken from patent publication EP0140958B1, “ONCOLYTIC DRUG COMBINATIONS” (ELFORD, Howard L., priority 1983, dated 1984).
Counter-ions that a name gives are not always drawn.

Tests used:
L-1210 leukemia = L-1210 leukemia transplanted tumor in mice, life span; format: in vivo; design: Mean Life Span: unit not given here; details: for Percent Increase In Life Span: over controls; for increase in life span: summary of Tables I and II, drug by itself, any dose level
Protocol: In this procedure, L-1210 leukemia was maintained by weekly passage of 10^5 L-1210 cells intraperitoneally into DBA/2 mice. Diluted ascitic fluid, 0.1 ml. (10^5 cells), was administered up to female B6D2F, mice weighing about 20 g. Drugs were administered intraperitoneally to the animals. Injections containing doxorubicin were given only on day 2 and the 3,4-dihydroxybenzohydroxamic acid was given on days 2, 3 and 4.

L1210 leukemia = details: from Elford et al. and van't Riet et al. publications; cited from earlier work

O=C(NO)c1ccc(O)c(O)c1 [3,4-dihydroxybenzohydroxamic acid]
Mean Life Span (L-1210 leukemia; Table 1, 275 Mg./Kg. intraperitoneally, days 2, 3 and 4, four mice per group): 12.75 | Percent Increase In Life Span (L-1210 leukemia; Table 1, 275 Mg./Kg. intraperitoneally, days 2, 3 and 4): 17% | Percent Cures (L-1210 leukemia; Table 1, 275 Mg./Kg. intraperitoneally, days 2, 3 and 4, survivors calculated at day 60): 0% | Mean Life Span (L-1210 leukemia; Table 1, 430 Mg./Kg. intraperitoneally, days 2, 3 and 4, four mice per group): 13.0 | Percent Increase In Life Span (L-1210 leukemia; Table 1, 430 Mg./Kg. intraperitoneally, days 2, 3 and 4): 19% | Percent Cures (L-1210 leukemia; Table 1, 430 Mg./Kg. intraperitoneally, days 2, 3 and 4, survivors calculated at day 60): 0% | Mean Life Span (L-1210 leukemia; Table 1, 645 Mg./Kg. intraperitoneally, days 2, 3 and 4, four mice per group): no better than control | Mean Life Span (L-1210 leukemia; Table 1, 645 Mg./Kg. intraperitoneally, days 2, 3 and 4, four mice per group, listed as 3,4-dihydroxy benzohydroxamic acid): 11.0 | Percent Increase In Life Span (L-1210 leukemia; Table 1, 645 Mg./Kg. intraperitoneally, days 2, 3 and 4): 1% | Percent Cures (L-1210 leukemia; Table 1, 645 Mg./Kg. intraperitoneally, days 2, 3 and 4, survivors calculated at day 60): 0% | Percent Increase In Life Span (L-1210 leukemia; Table II, 430 Mg./Kg. intraperitoneally, days 2, 3 and 4): 32% | Percent Cures (L-1210 leukemia; Table II, 430 Mg./Kg. intraperitoneally, days 2, 3 and 4, survivors calculated on day 35): 0% | Mean Life Span (L-1210 leukemia; Table II, 430 Mg./Kg. intraperitoneally, days 2, 3 and 4, three mice per group): 12 | Percent Increase In Life Span (L-1210 leukemia; Table II, 645 Mg./Kg. intraperitoneally, days 2, 3 and 4): 49% | Percent Cures (L-1210 leukemia; Table II, 645 Mg./Kg. intraperitoneally, days 2, 3 and 4, survivors calculated on day 35): 0% | Mean Life Span (L-1210 leukemia; Table II, 645 Mg./Kg. intraperitoneally, days 2, 3 and 4, three mice per group): 13.6 | increase in life span (L-1210 leukemia): very little increase in life span | activity against L1210 leukemia (L1210 leukemia): the most active

COc1cccc2c1C(=O)c1c(O)c3c(c(O)c1C2=O)C[C@@](O)(C(=O)CO)C[C@@H]3O[C@H]1C[C@H](N)[C@H](O)[C@H](C)O1 [Doxorubicin hydrochloride]
Mean Life Span (L-1210 leukemia; Table 1, 6 Mg./Kg. intraperitoneally, day 2, four mice per group): 14.5 | Percent Increase In Life Span (L-1210 leukemia; Table 1, 6 Mg./Kg. intraperitoneally, day 2): 33% | Percent Cures (L-1210 leukemia; Table 1, 6 Mg./Kg. intraperitoneally, day 2, survivors calculated at day 60): 0% | Mean Life Span (L-1210 leukemia; Table 1, 17 Mg./Kg. intraperitoneally, day 2, four mice per group): 28.5 | Percent Increase In Life Span (L-1210 leukemia; Table 1, 17 Mg./Kg. intraperitoneally, day 2): 161% | Percent Cures (L-1210 leukemia; Table 1, 17 Mg./Kg. intraperitoneally, day 2, survivors calculated at day 60): 0% | Mean Life Span (L-1210 leukemia; Table 1, 29 Mg./Kg. intraperitoneally, day 2, four mice per group): 27.75 | Percent Increase In Life Span (L-1210 leukemia; Table 1, 29 Mg./Kg. intraperitoneally, day 2): 155% | Percent Cures (L-1210 leukemia; Table 1, 29 Mg./Kg. intraperitoneally, day 2, survivors calculated at day 60): 0% | Percent Increase In Life Span (L-1210 leukemia; Table II, 6 Mg./Kg. intraperitoneally, day 2): 46% | Percent Cures (L-1210 leukemia; Table II, 6 Mg./Kg. intraperitoneally, day 2, survivors calculated on day 35): 0% | Mean Life Span (L-1210 leukemia; Table II, 6 Mg./Kg. intraperitoneally, day 2, three mice per group): 13.3 | Percent Increase In Life Span (L-1210 leukemia; Table II, 17 Mg./Kg. intraperitoneally, day 2): 76% | Percent Cures (L-1210 leukemia; Table II, 17 Mg./Kg. intraperitoneally, day 2, survivors calculated on day 35): 0% | Mean Life Span (L-1210 leukemia; Table II, 17 Mg./Kg. intraperitoneally, day 2, three mice per group): 16 | Percent Increase In Life Span (L-1210 leukemia; Table II, 29 Mg./Kg. intraperitoneally, day 2): 189% | Percent Cures (L-1210 leukemia; Table II, 29 Mg./Kg. intraperitoneally, day 2, survivors calculated on day 35): 33% | Mean Life Span (L-1210 leukemia; Table II, 29 Mg./Kg. intraperitoneally, day 2, three mice per group): 26.3 | increase in life span (L-1210 leukemia): substantial increase in life span | survivor (L-1210 leukemia; summary of Tables, by itself, at the highest dose level tested): one
